Results: patent US6887896B1, “7-[(7-Alkoxy)-chrom-3-en-6-yl]-heptatrienoic acid and 7-[(3-alkoxy)-5,6-dihydronaphthalen-2-yl]-heptatrienoic acid derivatives having serum glucose reducing activity” (Allergan, Inc., priority 2003, dated 2005)

Experiments:
[1] = biological target: T1, RARβ (Homo sapiens, UniProt P10826); experiment: chimeric receptor transactivation assay, RARβ; format: cell-based; conditions: for EC50: chimeric receptor transactivation, read-out: RAR Trans. EC50 β; for Emax: percentage compared to the standard compound, read-out: RAR Trans. efficacy (number in parentheses) β
T1 sequence (P10826 183-417 limits assumed): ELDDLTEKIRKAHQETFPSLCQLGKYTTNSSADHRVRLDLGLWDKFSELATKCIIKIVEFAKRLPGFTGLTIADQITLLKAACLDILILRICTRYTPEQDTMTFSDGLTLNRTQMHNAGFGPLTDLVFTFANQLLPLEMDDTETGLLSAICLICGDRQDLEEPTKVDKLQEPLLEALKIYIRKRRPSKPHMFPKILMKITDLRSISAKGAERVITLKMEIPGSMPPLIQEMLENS
Source text: (§1) Specifically, one such assay is a chimeric receptor transactivation assay which tests for agonist-like activity in the R RAPE and RAR7 receptor subtypes, and which is based on work published by Feigner, P. L. and Holm, M (1989) Focus, 112 is described in detail in U.S. Pat. No. 5,455,265. The specification of U.S. Pat. No. 5,455,265 is hereby expressly incorporated by reference. A holoreceptor transactivation assay and a ligand binding assay which measure the antagonist/agonist like activity of the compounds of the invention, or their ability to bind to the several retinoid receptor subtypes, respectively, are described in published PCT Application No. WO WO93/11755 (particularly on pages 30-33 and 37-41) published on Jun. 24, 1993, the specification of which is also incorporated herein by reference. A detailed experimental procedure for holoreceptor transactivations has been described by Heyman et al. Cell 68, 397-406, (1992); Allegretto et al. J. Biol. Chem. 268, 26625-26633, and Mangelsdorf et al. The Retinoids: Biology, Chemistry and Medicine, pp 319-349, Raven Press Ltd., New York, which are expressly incorporated herein by reference. The results obtained in this assay are expressed in EC50 numbers, as they are also in the chimeric receptor transactivation assay. The results of the ligand binding assay are expressed in Ki numbers. (See Cheng et al. Biochemical Pharmacology Vol. 22 pp 3099-3108, expressly incorporated herein by reference.)
(§2) Efficacy in a transactivation assay is expressed as a percentage of the maximum potency attained by the compound compared to a standard which, in this case, is the compound named (2E,4E,1′S,2′S)-3-methyl-5-[2′-methyl-2′-(5,5,8,8-tetramethyl-5,6,7,8-tetrahydro-naphthalen-2-yl)-cyclopropyl]-penta-2,4-dienoic acid. This standard compound is described in U.S. Pat. No. 6,114,533.
(§3) The specification of this application for patent is organized in several sections in accordance with structural Formulas A through F each of which discloses a group of preferred compounds within the scope of the invention. Tables that disclose the activity of certain exemplary compounds of the invention in the above-described RXR receptor transactivation and binding assays are found in the corresponding sections. […] The transactivation data pertaining to the activation of RXR receptors were obtained in the holoreceptor assay.
(§4) Generally speaking, in the tables disclosing the results of transactivation and binding assays the numbers in parentheses indicate efficacy as a percentage compared to the standard compound, (2E,4E,1′S,2′S)-3-methyl-5-[2′-methyl-2′-(5,5,8,8-tetramethyl-5,6,7,8-tetrahydro-naphthalen-2-yl)cyclopropyl]-penta-2,4-dienoic acid and the other numbers indicate the measured EC50 and K; in nanomolar concentration.

[2] = biological target: T2, RXRα (Homo sapiens, UniProt P19793); experiment: holoreceptor transactivation assay, RXRα; format: cell-based; conditions: for EC50: holoreceptor transactivation, read-out: RXR Trans. EC50 α; for Emax: percentage compared to the standard compound, read-out: RXR Trans. efficacy (number in parentheses) α
T2 construct: expressed in transfected cells
T2 sequence (P19793 1-462): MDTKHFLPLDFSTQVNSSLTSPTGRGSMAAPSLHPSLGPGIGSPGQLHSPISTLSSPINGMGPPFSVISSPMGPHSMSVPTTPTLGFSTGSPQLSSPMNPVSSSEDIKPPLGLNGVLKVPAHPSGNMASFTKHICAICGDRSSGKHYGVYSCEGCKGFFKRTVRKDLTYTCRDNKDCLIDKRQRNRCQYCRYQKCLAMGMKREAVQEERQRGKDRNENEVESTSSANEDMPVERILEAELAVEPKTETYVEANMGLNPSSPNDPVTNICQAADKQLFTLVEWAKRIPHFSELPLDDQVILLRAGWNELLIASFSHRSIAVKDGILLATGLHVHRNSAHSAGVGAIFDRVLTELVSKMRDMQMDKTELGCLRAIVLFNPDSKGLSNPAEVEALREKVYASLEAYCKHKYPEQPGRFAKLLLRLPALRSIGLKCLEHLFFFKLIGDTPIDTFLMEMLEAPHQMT
Source text: as §1, §2, §3, §4

[3] = biological target: T3, RXRγ (UniProt P28705); experiment: holoreceptor transactivation assay, RXRγ; format: cell-based; conditions: for EC50: holoreceptor transactivation, read-out: RXR Trans. EC50 γ; for RXR Trans. efficacy (number in parentheses) γ: percentage compared to the standard compound
T3 sequence (P28705 1-463): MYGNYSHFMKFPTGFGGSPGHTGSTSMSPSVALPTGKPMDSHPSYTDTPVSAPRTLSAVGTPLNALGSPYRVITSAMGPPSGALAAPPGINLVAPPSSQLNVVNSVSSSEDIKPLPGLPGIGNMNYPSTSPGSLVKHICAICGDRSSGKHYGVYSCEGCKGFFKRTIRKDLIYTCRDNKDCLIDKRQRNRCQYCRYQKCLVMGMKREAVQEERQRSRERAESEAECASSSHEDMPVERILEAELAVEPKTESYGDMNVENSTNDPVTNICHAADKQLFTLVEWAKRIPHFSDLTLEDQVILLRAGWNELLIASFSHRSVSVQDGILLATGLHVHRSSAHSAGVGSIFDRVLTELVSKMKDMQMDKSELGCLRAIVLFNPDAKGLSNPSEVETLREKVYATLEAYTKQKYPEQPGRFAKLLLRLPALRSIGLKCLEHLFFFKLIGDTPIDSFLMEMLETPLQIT
Source text: as §1, §2, §3, §4

[4] = biological target: T4, RARβ (Homo sapiens, UniProt P10826); experiment: ligand binding assay, RARβ; conditions: for Ki: read-out: RAR Bind. Ki β; for Kd: Table 9 (Formula F), read-out: RAR β Kd
T4 sequence (P10826 1-455): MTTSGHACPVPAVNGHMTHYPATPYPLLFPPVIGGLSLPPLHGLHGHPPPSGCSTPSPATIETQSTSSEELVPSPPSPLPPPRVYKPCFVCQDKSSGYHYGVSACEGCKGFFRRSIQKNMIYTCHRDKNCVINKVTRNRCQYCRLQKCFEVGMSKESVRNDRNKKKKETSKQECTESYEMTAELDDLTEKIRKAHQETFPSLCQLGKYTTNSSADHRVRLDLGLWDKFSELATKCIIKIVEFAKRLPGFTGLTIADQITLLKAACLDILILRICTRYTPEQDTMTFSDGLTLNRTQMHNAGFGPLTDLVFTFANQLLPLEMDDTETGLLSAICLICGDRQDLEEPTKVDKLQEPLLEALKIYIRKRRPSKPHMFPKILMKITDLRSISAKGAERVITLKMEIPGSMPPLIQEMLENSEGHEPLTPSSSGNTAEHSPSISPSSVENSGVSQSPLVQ
Source text: as §1, §4

[5] = biological target: T2, RXRα; experiment: ligand binding assay, RXRα; conditions: for Ki: read-out: RXR Bind Ki α; for Kd: Table 9 (Formula F), read-out: RXR α Kd
Source text: as §1, §4

Row | SMILES | EC50 [1] [nM] | Emax [1] [%] | EC50 [2] [nM] | Emax [2] [%] | EC50 [3] [nM] | RXR Trans. efficacy (number in parentheses) γ [3] [%] | Ki [4] [nM] | Ki [5] [nM] | Kd [4] [nM] | Kd [5] [nM]
1 | CCOc1cc2c(cc1\C(C)=C(F)/C=C/C(C)=C/C(=O)O)C(C)=CCC2(C)C | 316 | 26 | 3 | 62 | 3 | 70 | 359 | 2 | – | –
2 | CCC1=CC(C)(C)Oc2cc(OC)c(\C(C)=C/C=C/C(C)=C/C(=O)O)cc21 [Compound 42, 7-(4-Ethyl-7-methoxy-2,2-dimethyl-2H-chromen-6-yl)-3-methyl-octa-2E,4E,6Z-trienoic acid] | 845 | 34 | 6 | 99 | 13 | 125 | 9900 | 49 | – | –
3 | COc1cc2c(cc1\C(C)=C/C=C/C(C)=C/C(=O)O)C(C(C)C)=CC(C)(C)O2 [Compound 43, 7-(4-Isopropyl-7-methoxy-2,2-dimethyl-2H-chromen-6-yl)-3-methyl-octa-2E,4E,6Z-trienoic acid] | 57 | 37 | 2 | 89 | 3 | 95 | 378 | 6 | – | –
4 | CC/C(=C/C=C/C(C)=C/C(=O)O)c1cc2c(cc1OC)OC(C)(C)C=C2C(C)C [Compound 44, 7-(4-Isopropyl-7-methoxy-22-dimethyl-2H-chromen-6-yl)-3-methyl-nona-2E,4E,6Z-trienoic acid] | 75 | 25 | 0.3 | 89 | 0.4 | 97 | 617 | 4 | – | –
5 | CCOc1cc2c(cc1\C(C)=C/C=C/C(C)=C/C(=O)O)C(CC)=CC(C)(C)O2 [Compound 45, 7-(7-Ethoxy-4-ethyl-2,2-dimethyl-2H-chromen-6-yl)-3-methyl-octa-2E,4E,6Z-trienoic acid] | > 1000 | – | 78 | 5 | – | – | 196 | 52 | – | –
6 | CCOc1cc2c(cc1\C(C)=C(F)/C=C/C(C)=C/C(=O)O)C(c1ccccc1)=CC(C)(C)O2 [Compound 127, (2E,4E,6E)-7-(7-Ethoxy-2,2-dimethyl-4-phenyl-2H-chromen-6-yl)-6-fluoro-3-methyl-octa-2,4,6-trienoic acid] | 227 | 17 | – | – | – | – | 1400 | 97 | – | –
7 | CCCOc1cc2c(cc1\C(C)=C(F)/C=C/C(C)=C/C(=O)O)C(c1ccccc1)=CC(C)(C)O2 [Compound 128, (2E,4E,6E)-7-(2,2-Dimethyl-4-phenyl-7-propoxy-2H-chromen-6-yl)-6-fluoro-3-methyl-octa-2,4,6-trienoic acid] | 90 | 22 | – | – | – | – | 388 | 53 | – | –
8 | CCCOc1cc2c(cc1\C(C)=C(F)/C=C/C(C)=C/C(=O)O)C(C(C)C)=CCC2(C)C [Compound A-80] | 80 | 13 | – | – | – | – | 552 | 10 | – | –
9 | CC(/C=C/C(F)=C(/C)c1cc2c(cc1OCC1CC1)C(C)(C)CC=C2C(C)C)=C\C(=O)O [Compound A-81, (2E,4E,6E)-6-Fluoro-3-(4-dimethyl-6-(cyclopropyl)methoxy-1-isopropyl-3,4-dihydronaphthalen-7-yl)-3-methyl-2,4.6-octa-trienoic acid] | 203 | 23 | – | – | – | – | 927 | 12 | – | –
10 | CCCOc1cc2c(cc1\C(C)=C(F)/C=C/C(C)=C/C(=O)O)C(C(C)(C)C)=CCC2(C)C [Compound A-84, (2E,4E,6E)-6-Fluoro-3-(4,$dimethyl-6-n-propoxy-1-tert-butyl-3,4-dihydronaphthalen-7-yl)-3-methyl-2,4,6-octatrienoic acid] | 56 | 8 | – | – | – | – | 620 | 13 | – | –
11 | CC(/C=C/C(F)=C(/C)c1cc2c(c(Br)c1OC(C)C)C(C)(C)CC=C2C(C)C)=C\C(=O)O [Compound A-172, (2E,4E,6E)-7-(4-Bromo-3-isopropoxy-8-isopropyl-5,5-dimethyl-5,6-dihydro-naphthalen-2-yl)-6-fluoro-3-methyl-octa-2,4,6-trienoic acid] | – | – | 19 | 31 | 18 | 12 | – | – | 212 | 8
12 | CCOc1c(\C(C)=C(F)/C=C/C(C)=C/C(=O)O)cc2c(c1Br)C(C)(C)CC=C2C(C)(C)C [Compound A-174, (2E,4E,6E)-7-(4-Bromo-8-tert-butyl-3-ethoxy-5,5-dimethyl-5,6-dihydro-naphthalen-2-yl)-6-fluoro-3-methyl-octa-2,4,6-trienoic acid] | – | – | 1 | 24 | 2 | 12 | – | – | 517 | 2
13 | CCOc1c(\C(C)=C(F)/C=C/C(C)=C/C(=O)O)cc2c(c1Cl)C(C)(C)CC=C2C(C)C [Compound A-177, (2E,4E,6E)-7-(4-Chloro-3-ethoxy-8-isopropyl-5,5-dimethyl-5,6-dihydronaphthalen-2-yl)6-fluoro-3-methyl-octa-2,4,6-trienoic acid] | – | – | 0.1 | 72 | 0.2 | 73 | – | – | 443 | 2
